# Test results from paper PMC5626011 (Bioorganic & Medicinal Chemistry Letters, 2017).
# Key:
# SUDV (Gulu) = format: cell-based, Sudan virus (SUDV)
# [1] = tested on: recombinant Ebola virus Makona expressing ZsGreen (rEBOV/ZsG); format: cell-based
# EBOV (Makona) = format: cell-based, Ebola virus (EBOV)
# MARV (Ci67) = format: cell-based, Marburg virus (MARV)
SMILES,SUDV EC50 (SUDV (Gulu)),EC50 ([1]; read-out: EBOV EC50),EBOV EC50 (EBOV (Makona)),MARV EC50 (MARV (Ci67)),fold less potent than compound 1 [1]
COc1nc(N)ncc1-c1cn(COCCO)cn1 [compound 1],no detectable activity,2.2 ± 0.3 µM,no detectable activity,no detectable activity,
CCC(CC)COC(=O)[C@H](C)N[P@](=O)(OCCOCn1cnc(-c2cnc(N)nc2OC)c1)Oc1ccccc1 [compound 3],,,,,~10 fold
